Assay results as given in PubChem BioAssay (NCI).
“And” between values parts separate entries of the source, which are not always exact repeats. Equal entries are not always repeated.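 A five-concentration, 48-hour dose response in 96-well plates underlies each endpoint, interpolated linearly between surrounding concentrations. Here, GI50 denotes the concentration required for 50% inhibition of growth. Definition used: TGI = concentration required for complete inhibition of growth.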

Legend:
Assay in all cases: NCI tumour cell line growth inhibition, 48 h
SNB-78 CNS = test system: SNB-78 CNS
SF-539 CNS = test system: SF-539 CNS
HOP-18 NSCLC = test system: HOP-18 NSCLC
KM20L2 colon = test system: KM20L2 colon
M19-MEL melanoma = test system: M19-MEL melanoma
DMS 114 small cell lung = test system: DMS 114 small cell lung
DMS 273 small cell lung = test system: DMS 273 small cell lung
MDA-MB-435 = test system: MDA-MB-435
BT-549 breast = test system: BT-549 breast
PC-3 prostate = test system: PC-3 prostate

Compound	TGI (SNB-78 CNS)	TGI (SF-539 CNS)	TGI (HOP-18 NSCLC)	TGI (KM20L2 colon)	TGI (M19-MEL melanoma)	TGI (DMS 114 small cell lung)	TGI (DMS 273 small cell lung)	GI50 (SNB-78 CNS)	GI50 (SF-539 CNS)	GI50 (HOP-18 NSCLC)	GI50 (DMS 273 small cell lung)	GI50 (KM20L2 colon)	GI50 (M19-MEL melanoma)	GI50 (DMS 114 small cell lung)	TGI (MDA-MB-435)	TGI (BT-549 breast)	TGI (PC-3 prostate)	GI50 (MDA-MB-435)	GI50 (BT-549 breast)	GI50 (PC-3 prostate)
O=C1c2cccc3cc([N+](=O)[O-])cc(c23)C(=O)N1CCCN1CCN(CCCN2C(=O)c3cccc4cc([N+](=O)[O-])cc(c34)C2=O)CC1	12.9 µM	12 µM	7.81 µM	> 100 µM	2.56 µM	–	–	–	–	–	–	–	–	–	–	–	–	–	–	–
COc1ccc(/C=[N+](\[O-])[C@H](COCc2ccccc2)c2ccccc2)cc1	> 100 µM	> 100 µM	> 100 µM	> 100 µM	–	> 100 µM	> 100 µM	–	–	–	–	–	–	–	–	–	–	–	–	–
CC(SC1=CC(=O)c2c(O)ccc(O)c2C1=O)C(=O)O (centres undefined)	> 79.1 µM	> 100 µM	> 90.3 µM	> 100 µM	–	44 µM	> 100 µM	–	–	–	–	–	–	–	–	–	–	–	–	–
CC(=O)O/C(C)=C\C(=O)O/N=C(\N)c1ccc(C)cc1	70.9 µM	57.4 µM	98.6 µM	> 100 µM	–	45 µM	> 100 µM	–	–	–	–	–	–	–	–	–	–	–	–	–
COc1cccc2c1C1=CC(=O)CCC1C(C)(C)O2 (centres undefined)	> 100 µM	> 100 µM	> 100 µM	> 100 µM	> 100 µM	61.5 µM	> 100 µM	–	–	–	–	–	–	–	–	–	–	–	–	–
CCCN(CCC)c1c([N+](=O)[O-])cc(S(N)(=O)=O)cc1[N+](=O)[O-]	–	35.9 µM	36.2 µM	37.4 µM	40.6 µM	40.3 µM	33.8 µM	–	–	–	–	–	–	–	–	–	–	–	–	–
CC(C)(C)C([O-])=C1C(=O)c2ccccc2C1=O.CC(C)(C)C([O-])=C1C(=O)c2ccccc2C1=O.CC[O-].CC[O-].[Ti+4]	93.8 µM	> 100 µM	83.3 µM	> 100 µM	> 100 µM	–	> 100 µM	28.4 µM	50.8 µM	18.2 µM	31.2 µM	29.2 µM	31.5 µM	–	–	–	–	–	–	–
Cn1cc(NC(=O)c2cc(NC(=O)CCCCCC(=O)Nc3cc(C(=O)Nc4cc(C(=O)NCCC(=N)N)n(C)c4)n(C)c3)cn2C)cc1C(=O)NCCC(=N)N	> 100 µM	> 100 µM	> 100 µM	> 100 µM	92.8 µM	> 100 µM	> 100 µM	–	–	–	–	–	–	–	–	–	–	–	–	–
CCOC(=O)/C=C(/CN1C(=O)c2ccccc2C1=O)c1ccccc1	> 100 µM	> 100 µM	> 100 µM	> 100 µM	> 100 µM	> 100 µM	> 100 µM	–	–	–	–	–	–	–	–	–	–	–	–	–
Cn1nnnc1[N-]Cc1ccccc1.[Au+].c1ccc([PH+](c2ccccc2)c2ccccc2)cc1	> 66.9 µM	23.2 µM	4.98 µM	29.8 µM	25.3 µM	4.83 µM	> 100 µM	6.86 µM	8.93 µM	2.25 µM	11.1 µM	8.56 µM	3.32 µM	1.53 µM	–	–	–	–	–	–
O=c1oc2c3ccc4ccccc4c3n(Cc3nc4ccccc4[nH]3)c2c2ccccc12	> 100 µM	> 26.2 µM	> 100 µM	> 100 µM	> 100 µM	> 100 µM	–	–	–	–	–	–	–	–	–	–	–	–	–	–
COc1cc2ccc3c4cc(OC)c(OCc5ccccc5)cc4cnc3c2cc1OC	> 100 µM	–	–	> 100 µM	> 100 µM	> 100 µM	–	–	–	–	–	–	–	–	–	–	–	–	–	–
c1ccc2c(NCCCCCCCCNc3c4ccccc4nc4ccccc34)c3ccccc3nc2c1	–	1.15 µM	5.19 µM	2.55 µM	2.27 µM	2.42 µM	1.26 µM	–	–	–	–	–	–	–	2.35 µM	2.76 µM	1.67 µM	–	–	–
CCCCCCCCCCCC(=O)C1=C(O)C(O)CCC1=O (centres undefined)	55.8 µM	45.4 µM	86.5 µM	24.9 µM	44.6 µM	50.5 µM	21.3 µM	–	–	–	–	–	–	–	–	–	–	–	–	–
O=C(O)c1[nH]c(C(=O)O)c(CC(F)(F)C(F)(F)C(F)(F)F)c1CC(F)(F)C(F)(F)C(F)(F)F	> 100 µM	> 100 µM	> 100 µM	> 100 µM	> 100 µM	> 100 µM	> 100 µM	–	–	–	–	–	–	–	–	–	–	–	–	–
CC1(C)OC2C(=O)OC(COCc3ccccc3)C2O1 (centres undefined)	> 100 µM	> 100 µM	> 100 µM	> 100 µM	> 100 µM	–	> 100 µM	–	–	–	–	–	–	–	–	–	–	–	–	–
Cn1c(=O)c2c(nc3n2CCC(=O)N3)n(C)c1=O	> 100 µM	> 100 µM	–	> 100 µM	> 100 µM	> 100 µM	> 100 µM	–	–	–	–	–	–	–	–	–	–	–	–	–
c1cncc(C2c3[nH]c4ccccc4c3CCN2CCN2CCCCC2)c1 (centres undefined)	> 100 µM	> 100 µM	> 100 µM	> 100 µM	> 100 µM	> 100 µM	> 100 µM	–	–	–	–	–	–	–	–	–	–	–	–	–
C=CCN(N=O)C(=O)N(CCC)CCCC(NC(C)=O)C(=O)NCc1ccccc1 (centres undefined)	–	> 100 µM	> 100 µM	> 100 µM	> 100 µM	> 100 µM	> 100 µM	–	–	–	–	–	–	–	–	–	–	–	–	–

Compound	TGI (SNB-78 CNS)	TGI (SF-539 CNS)	TGI (HOP-18 NSCLC)	TGI (KM20L2 colon)	TGI (M19-MEL melanoma)	TGI (DMS 114 small cell lung)	TGI (DMS 273 small cell lung)	GI50 (SNB-78 CNS)	GI50 (SF-539 CNS)	GI50 (HOP-18 NSCLC)	GI50 (DMS 273 small cell lung)	GI50 (KM20L2 colon)	GI50 (M19-MEL melanoma)	GI50 (DMS 114 small cell lung)	TGI (MDA-MB-435)	TGI (BT-549 breast)	TGI (PC-3 prostate)	GI50 (MDA-MB-435)	GI50 (BT-549 breast)	GI50 (PC-3 prostate)
CCCN(CCCCC(NC(C)=O)C(=O)NCc1ccccc1)C(=O)NC (centres undefined)	> 100 µM	> 100 µM	–	> 100 µM	> 100 µM	> 100 µM	> 100 µM	–	–	–	–	–	–	–	–	–	–	–	–	–
CCCCS(=N)(=O)CC[C@H](N)C(=O)O (some centres undefined)	> 5000 µM	5000 µM and > 10000 µM	> 5000 µM	> 5000 µM	> 5000 µM	> 5000 µM	> 5000 µM	–	> 10000 µM	–	–	–	–	–	> 10000 µM	> 10000 µM	> 10000 µM	> 10000 µM	> 10000 µM	> 10000 µM
CCc1cccc(C)c1NC(=O)CC1Sc2ccccc2NC1=O (centres undefined)	> 100 µM	> 100 µM	> 100 µM	> 100 µM	> 100 µM	> 100 µM	> 100 µM	–	–	–	–	–	–	–	–	–	–	–	–	–
c1ccc(COc2ccc3[nH]c4c(ncc5[nH]c6ccccc6c54)c3c2)cc1	40 µM	29.4 µM	26.1 µM	20.4 µM	–	38.3 µM	30.4 µM	–	–	–	–	–	–	–	–	–	–	–	–	–
CC[C@@]1(OC(=O)CCC(=O)O)C(=O)OCc2c1cc1n(c2=O)Cc2cc3ccccc3nc2-1	> 100 µM	0.238 µM	> 100 µM	33.8 µM	1.69 µM	1.08 µM	0.676 µM	–	–	–	–	–	–	–	3.22 µM	> 28.3 µM	> 100 µM	–	–	–
CCCCCCCCCCCCC(SCCNC(=O)CCNC(=O)C(O)C(C)(C)COP(=O)(O)OP(=O)(O)OCC1OC(n2cnc3c(N)ncnc32)C(O)C1OP(=O)(O)O)C(=O)NCC(N)=O (centres undefined)	–	> 100 µM	> 100 µM	> 100 µM	> 100 µM	> 100 µM	> 100 µM	–	–	–	–	–	–	–	–	–	–	–	–	–
c1cc2c(cnc3cscc32)s1	> 100 µM	> 100 µM	–	–	> 100 µM	> 100 µM	> 100 µM	–	–	–	–	–	–	–	–	–	–	–	–	–
Nc1ccc2c(c1)[O][Sn]([c]1ccccc1)([c]1ccccc1)[O]C2=O	23.4 µM	18.8 µM	29 µM	31.9 µM	23.9 µM	18.7 µM	31.1 µM	5.31 µM	9.5 µM	15.6 µM	16.6 µM	18 µM	11 µM	6.68 µM	17.3 µM	6.4 µM	24.9 µM	6.78 µM	1.98 µM	12.4 µM
CN(C)CCNC(=O)c1cc([N+](=O)[O-])cc2ccc(-c3ccccc3)nc12	> 60.9 µM	27.2 µM	26.3 µM	31.2 µM	20 µM	28.6 µM	31.7 µM	–	–	–	–	–	–	–	–	–	–	–	–	–
CC(C)(C)N=CN1CCC(C(c2ccccc2)c2ccccc2)CC1	> 100 µM	> 100 µM	> 100 µM	32.2 µM	> 100 µM	> 100 µM	> 100 µM	–	–	–	–	–	–	–	–	–	–	–	–	–
Cc1c2ncccc2c(C)c2c1[nH]c1ccccc12	36 µM	26 µM	27.3 µM	22.6 µM	26.1 µM	–	19 µM	–	–	–	–	–	–	–	–	–	–	–	–	–
COc1ccc(N=Cc2ccc(N(CCC#N)CCC#N)cc2)cc1	> 100 µM	78.7 µM	> 100 µM	> 100 µM	> 91.8 µM	> 100 µM	> 100 µM	–	–	–	–	–	–	–	> 100 µM	> 100 µM	> 100 µM	–	–	–
O=C(N=Nc1c(O)[nH]c2ccccc12)c1ccccc1O	> 100 µM	> 100 µM	> 100 µM	> 100 µM	> 100 µM	> 100 µM	–	–	–	–	–	–	–	–	–	–	–	–	–	–
CCOC(OC1=C(C#N)CCC1)C(CC)[Se]c1ccccc1 (centres undefined)	> 100 µM	37.6 µM	69.5 µM	64.7 µM	30.3 µM	10.4 µM	24.2 µM	–	–	–	–	–	–	–	–	–	–	–	–	–
Cc1cc2occ(C)c(=O)c2c2c1OC(C)(C)S2	–	> 100 µM	> 100 µM	> 100 µM	> 100 µM	> 100 µM	> 100 µM	–	–	–	–	–	–	–	–	–	–	–	–	–
CC(O)C(NC(=O)C(CS)NC(=O)C(CO)NC(=O)C(CCCCN)NC(=O)C(Cc1c[nH]c2ccccc12)NC(=O)C(Cc1ccc(O)cc1)NC(=O)C(CS)NC(=O)C(N)Cc1ccccc1)C(N)=O (centres undefined)	96 µM	> 25 µM and 68.9 µM	46.6 µM	55.8 µM	70.9 µM	87.9 µM	49.4 µM	–	–	–	–	–	–	–	> 25 µM	–	> 25 µM	–	–	–
c1c[nH]c(Cc2ncc(Cc3cnc[nH]3)[nH]2)n1	–	> 100 µM	> 100 µM	> 100 µM	55.8 µM	58.6 µM	67.8 µM	–	–	–	–	–	–	–	–	–	–	–	–	–
Cc1c(C(=O)CC(=O)C(=O)NC2C3CC4CC(C3)CC2C4)[n+](=O)c2ccccc2n1[O-] (centres undefined)	> 100 µM	> 100 µM	> 100 µM	> 100 µM	> 100 µM	> 100 µM	> 100 µM	–	–	–	–	–	–	–	–	–	–	–	–	–
